As a reminder, the IC50 is the concentration at which inhibition is half-maximal. By half-life is commonly meant the time needed for the level to fall by half in the phase considered.

In data set [1] the test system is KRAS G12C in NCI-H358 cells. The experiment in a line: pERK inhibition assay, NCI-H358. It counts as cell-based, human. The settings on record: 4 hours incubation. A digest of the protocol: (§1)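 NCI-H358, AGS and SW620 cells in RPMI-1640/10% FBS were plated overnight, then exposed to compound (0.5% DMSO final) for 4 h. After fixation and permeabilization, phospho-ERK was quantified by in-cell ELISA (HRP secondary, TMB, OD450); IC50 from a 4-parameter sigmoidal fit.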

Data set [2] concerns the target T1, KRAS G12C-BRAF complex (Homo sapiens (Human), UniProt P01116+P62937, G12C). The experiment in a line: KRAS-BRAF with CYPA (50 nM) interaction assay (TR-FRET), G12C. The following applies: GMPPNP loaded 6His-KRAS, GST-BRAF RBD. It counts as binding. A digest of the protocol:
(§2)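 Buffer 25 mM HEPES pH 7.4, 100 mM NaCl, 5 mM MgCl2, 10 μM GMPPNP, 0.1% BSA; final 50 nM tagless CYPA, 6.25 nM GMPPNP-loaded 6His-KRAS mutant, 1 nM GST-BRAF RBD. Compounds 16-point 3-fold series from 10 μM, 3 h; anti-6His-XL665/anti-GST-Tb added, 1.5 h; 665/615 nm ratio decrease versus DMSO.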

The subject of the next data set is AGS cells. The data set is described as follows: Cell viability assay, AGS. The data set is classed as cell-based, human. The settings on record: 72 hours, Cell Counting Kit-8, read-out: G12D IC50. In short, it runs like this:
(§3)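 Cells were plated at 5,000 (NCI-H358) or 2,000 (AGS, SW620) per well and incubated overnight. They were then treated with compound in 0.5% DMSO for 72 h. Viability was read with CCK-8 as OD450 minus OD650 after 2 h, and IC50 came from a 4-parameter sigmoidal fit.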
Background: Tetrazolium assays rely on reduction of a dye to a coloured formazan, in cell work by metabolically active cells.

Data set [3] has as its target KRAS G12D binding to BRAF (Homo sapiens (Human), UniProt P01116+P62937, G12D). The experiment in a line: KRAS-BRAF with CYPA (50 nM) interaction assay (TR-FRET), G12D. The settings on record: GMPPNP loaded 6His-KRAS, GST-BRAF RBD. A digest of the protocol:
as §2
Background: Time-resolved FRET reads energy transfer from a long-lived donor to a nearby acceptor.

Data set [4] concerns the target T1, KRAS G12C-BRAF complex. The experiment in a line: KRAS G12C-BRAF NanoBit assay. The settings on record: HEK293 cells, SmBit-KRAS G12C and BRAF RBD-LgBit, 3 hours incubation. It counts as cell-based. As for the experimental part: This assay is to measure the ability of tested compounds in disruption of the KRAS G12C-BRAF complex at the cellular level, we established the NanoBit cellular assay in mammalian HEK293 (ATCC) cells. HEK293 cells were grown and maintained using DMEM medium (Thermo Fisher Scientific) with 10% fetal bovine serum and 1% penicillin/streptomycin. Both KRAS G12C and BRAF RBD were cloned into the NanoBit vectors ([…] vectors system, Promega) with the orientations SmBit-KRAS G12C and BRAF RBD-LgBit, respectively, and co-transfected into HEK293 cells. Cells were then selected with 100 μg/mL Hygromycin B (10687010, Thermo Fisher) and Blasticidin (5 μg/mL) for 4 weeks to get the stable cell pool. On the day of the assay, 75 nL of compound solution was presented in a 384-well assay plate as a 16-point 3-fold dilution starting from a final concentration of 30 μM in DMSO. Then cells were seeded at 10,000 cells/25 μL/well in a 384-well plate. After 3 hours of incubation, 6 μL of volume of Nano-Glo® Live Cell Substrate (Promega) was added into each well. Monitor luminescence using ultra384 model in Envision at 20 minutes. Compounds that facilitate disruption of the KRAS G12C-BRAF RBD complex were identified as those eliciting a decrease of luminescence relative to DMSO control wells.

A further data set relates to KRAS G12D in AGS cells. The experiment in a line: pERK inhibition assay, AGS. It counts as cell-based, human. The following applies: 4 hours incubation. In short, it runs like this: as §1
For a further data set, the system named is KRAS G12V in SW620. The data set is described as follows: pERK inhibition assay, SW620. The data set is classed as cell-based, human. The settings on record: 4 hours incubation. In short, it runs like this:
as §1

The target of data set [5] is KRAS G12V binding to BRAF (Homo sapiens (Human), UniProt P01116+P62937, G12V). The data set is described as follows: KRAS-BRAF with CYPA (50 nM) interaction assay (TR-FRET), G12V. The settings on record: GMPPNP loaded 6His-KRAS, GST-BRAF RBD. In short, it runs like this: as §2
Sequence of KRAS G12V binding to BRAF (P01116-2 other isoform, or with tags, fused parts or gaps G12V): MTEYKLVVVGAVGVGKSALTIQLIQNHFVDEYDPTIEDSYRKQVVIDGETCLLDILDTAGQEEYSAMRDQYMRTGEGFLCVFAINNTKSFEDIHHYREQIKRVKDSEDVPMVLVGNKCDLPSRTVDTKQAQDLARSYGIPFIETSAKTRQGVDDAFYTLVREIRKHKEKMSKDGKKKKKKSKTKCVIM
Sequence of KRAS G12V binding to BRAF (P62937 whole entry): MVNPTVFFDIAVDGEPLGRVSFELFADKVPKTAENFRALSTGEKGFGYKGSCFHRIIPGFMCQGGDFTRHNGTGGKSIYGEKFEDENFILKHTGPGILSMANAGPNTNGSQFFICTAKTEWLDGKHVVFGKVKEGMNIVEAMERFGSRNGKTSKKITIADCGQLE
The test system of the next data set is SW620 cells. The experiment in a line: Cell viability assay, SW620. It counts as cell-based, human. The settings on record: Cell Counting Kit-8, read-out: G12V IC50. A digest of the protocol: as §3
A further data set concerns NCI-H358 cells. The experiment in a line: Cell viability assay, NCI-H358. It counts as cell-based, human. The settings on record: NCI-H358, 72 hours, Cell Counting Kit-8, read-out: G12C IC50. In short, it runs like this:
as §3

The nature of data set [6]: GSH reaction rates (inherent GSH reactivity). It counts as in vitro ADME. As to the method:
(§4) Therefore Strategy to minimize the GSH metabolism is very critical. Short T1/2 in inherent GSH reaction indicated high GSH reaction rate. Thus T1/2 in inherent GSH reaction assay was determined for the screening of candidates. Reference compounds and compounds of this invention potentially could form conjugation with GSH either through halogenated moieties substitution reaction or direct Michael addition reaction. This test was therefore performed to check GSH reactivity of listed compounds. For inherent GSH reactivity determination, compounds at 1 μM were incubated at 37° C. with and without 5 mM GSH for 0, 0.5, 1, 2, 4 and 6 h in 100 mM potassium phosphate buffer at pH 7.4. At the end of the designated time points, samples were quenched with acetonitrile containing 10 mM N-ethylmaleimide and an internal standard. Quenched samples were centrifuged, and supernatants were analyzed by LC-MS/MS for compound quantification.

For the next data set, the system named is GSH. The data set is described as follows: GSH reaction rates (inherent GSH reactivity). The data set is classed as in vitro ADME. The settings on record: buffer, pH 7.4. As to the method: as §4
Data set [7] is described as follows: Human hepatocytes stability assay. The settings on record: for CL_hep (Human): 1 μM compound, human hepatocytes 1×10^6 cells/mL. It counts as in vitro ADME. As to the method: The hepatocyte stability assay measures the rate of disappearance of a compound from incubations with cryopreserved suspension hepatocytes from human. Positive controls, including Midazolam, Raloxifene and Dextromethorphan, are included in every experiment. Incubations consist of 1 μM tested compound and suspension of human hepatocytes (1×10^6 cells/mL) in supplemented Williams' E Medium with […] and 0.5% Penicillin-streptomycin. The hepatocyte suspension was incubated with intermittent shaking 900 rpm at 37° C., in a 5% CO2 incubator. The reaction was stopped by adding methanol containing internal standard (2 μM Tolbutamide) at 2, 10, 20, 40, 60 and 120 minutes after compound addition, depletion of the parent compound was monitored by LC-MS/MS analysis.

Where [8] appears, read: Homo sapiens, SW-620, SW620 cells.
[9] abbreviates: Homo sapiens, SW-620, SW620, 72 hours.

Like-named read-outs stand apart in the source and are kept apart here.

T1 sequence (P01116-2 other isoform, or with tags, fused parts or gaps G12C): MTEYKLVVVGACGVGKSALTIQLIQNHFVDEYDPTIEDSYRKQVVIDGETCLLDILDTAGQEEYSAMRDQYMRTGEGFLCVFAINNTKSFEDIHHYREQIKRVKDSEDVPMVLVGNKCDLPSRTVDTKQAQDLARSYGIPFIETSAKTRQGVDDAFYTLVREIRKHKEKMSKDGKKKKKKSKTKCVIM
T1 sequence (P62937 whole entry): as the sequence (P62937 whole entry) above
Sequence of KRAS G12D binding to BRAF (P01116-2 other isoform, or with tags, fused parts or gaps G12D): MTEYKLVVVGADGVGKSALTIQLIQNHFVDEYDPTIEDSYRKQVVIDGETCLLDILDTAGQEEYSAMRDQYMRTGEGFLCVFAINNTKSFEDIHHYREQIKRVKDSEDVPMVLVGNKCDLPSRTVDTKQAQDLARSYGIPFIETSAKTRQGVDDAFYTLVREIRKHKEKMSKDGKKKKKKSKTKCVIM
Sequence of KRAS G12D binding to BRAF (P62937 whole entry): as the sequence (P62937 whole entry) above

Take `CO[C@@H](C)c1ncc(N2CCN(C)CC2)cc1-c1c2c3cc(ccc3n1CC(F)(F)F)-c1csc(n1)C[C@H](NC(=O)[C@H](C(C)C)N1CC[C@]3(CCN(C(=O)[C@H](F)Cl)C3)C1=O)C(=O)N1CCC[C@H](N1)C(=O)OCC(C)(C)C2` [Example 24, (2S)-2-[(5R)-7-[(2R)-2-chloro-2-fluoro-acetyl]-1-oxo-2,7-diazaspiro[4.4]nonan-2-yl]-N-[(7S,13S)-(20M)-20-[2-[(1S)-1-methoxyethyl]-5-(4-methylpiperazin-1-yl)-3-pyridyl]-17,17-dimethyl-8,14-dioxo-21-(2,2,2-trifluoroethyl)-15-oxa-4-thia-9,21,27,28-tetrazapentacyclo[17.5.2.12,5.19,13.022,26]octacosa-1(25),2,5(28),19,22(26),23-hexaen-7-yl]-3-methyl-butanamide]: the IC50 is 2 nM in [1]; 21 nM at KRAS G12C-BRAF complex [2]; 886 nM with AGS cells; more than 10 µM in data set [3]; 36 nM on KRAS G12C-BRAF complex [4]; 0.065 µM in the data set on KRAS G12D in AGS cells. For the same compound, the IC50 in the data set with KRAS G12V in SW620 (SW620 cells) was 0.042 µM; in [5], more than 10 µM; in the data set on SW620 cells (SW620, 72 hours) it was 0.489 µM; in the data set with NCI-H358 cells, less than 0.6 nM.

As to `CC(C)[C@@H](C(=O)N[C@H]1Cc2cc(O)cc(c2)-c2ccc3c(C(C)(C)C#N)cn(c3c2)CC(C)(C)COC(=O)[C@@H]2CCCN(N2)C1=O)N1CCCC2(CCN(C(=O)CCl)C2)C1=O` (some centres unmarked) [RM351, reference compound], the concentration for half-maximal inhibition (IC50) in data set [1] (Homo sapiens) was 356 nM; with AGS cells (Homo sapiens), 2100 nM; with KRAS G12D in AGS cells (Homo sapiens), more than 10 µM; in the data set with KRAS G12V in SW620 (setting [8]), more than 10 µM; in the data set on SW620 cells (setting [9]), 4.81 µM; in the data set on NCI-H358 cells (Homo sapiens), 1390 nM. The “conjugation with GSH (in words)” value in [6] is given as “formed conjugation with GSH”. This compound also showed a half-life at 1 μM with GSH of 258 min. The “CL_hep (Human)” value in data set [7] amounted to 15.5 mL/min/kg.

`CCn1c(-c2cccnc2[C@H](C)OC)c2c3cc(ccc31)-c1cc(O)cc(c1)C[C@H](NC(=O)[C@H](C(C)C)N(C)C(=O)C1CN(C(=O)CCl)C1)C(=O)N1CCC[C@H](N1)C(=O)OCC(C)(C)C2` [RM461, reference compound]: the IC50 is 7 nM in [1] (Homo sapiens); 2710 nM with AGS cells (Homo sapiens); more than 10 µM in the data set on KRAS G12D in AGS cells (Homo sapiens); more than 10 µM in the data set on KRAS G12V in SW620 (setting [8]); 4.04 µM in the data set on SW620 cells (setting [9]); 22 nM in the data set with NCI-H358 cells (Homo sapiens). Besides, the “conjugation with GSH (in words)” value in data set [6] was “formed conjugation with GSH”. The half-life at 1 μM in the data set on GSH is 300 min. In data set [7], the “CL_hep (Human)” value was found to be 16.4 mL/min/kg. Moreover, in data set [7] (human hepatocytes), the “Clearance Category” value is given as “high (CL_hep (mL/min/kg)>16.24 is high clearance)”.

Source of the values: patent US20250163072A1, “MACROCYCLIC COMPOUNDS FOR THE TREATMENT OF CANCER” (Hoffmann-La Roche Inc., priority 2021, published 2025).
